Measured values as given in US9090701B2, “Methods of detecting oxidized calcium/calmodulin dependent protein kinase II” (University of Iowa Research Foundation, priority 2008, dated 2015).

Test system: cardiomyocytes
Test: Isolated cardiomyocyte TUNEL staining
Assay type: cell-based, mouse
Details: 100 nM, 24 hours
Description: Myocyte isolations from neonatal mouse or rat pups were modified from previously described methods (Mohler e.g., 2007). To generate the primary cardiomyocyte cultures, hearts were dissected from P1 animals and placed in 1 mL of Ham's F-10. Atrial tissue was removed and the ventricular chambers were rinsed to remove any remaining blood. Hearts were transferred into 1.5 mL of 0.05% Trypsin, 200 μM EDTA in Ham's F-10 medium (Mediatech). Hearts were minced into approximately 20 small pieces using forceps and small scissors and incubated in the Trypsin/EDTA medium at 37° C. Following 15 min, the heart pieces were mixed by a Pasteur pipette and incubated for an additional 15 min. A mixture of 200 μL of soybean trypsin inhibitor (2 mg/mL; Worthington) and 200 μL of collagenase (0.2 mg/mL; 1980 units/mg; Sigma) was incubated with the cells for 35-50 min at 37° C. The cell suspension was pelleted, resuspended in “Complete Medium” (40% DMEM, 40% Ham's F-10, 20% FCS), and plated on plastic dishes. Following five hours, the non-adhered cells (cardiomyocytes) were aspirated from the plate, pelleted, resuspended in Complete Medium, and plated on Mattek tissue culture plates (fibronectin-coated; Roche). Cardiomyocytes were washed with Ham's F-10 and Medium was replaced with “Defined Medium” to prevent the growth of fibroblasts. 100× Defined Medium consists of 100 μg/mL insulin, 500 μg/mL transferrin, 100 nM LiCl, 100 nM NaSeO4, and 10 nM thyroxine. To ensure that pure populations of cardiomyocytes were obtained, cultures were immunolabeled with alpha-actinin Ig (cardiomyocyte-specific marker). Only cultures with >90% cardiomyocytes were used in experiments. (See FIG. 12.) Lentiviral treatments (shRNA, rescue constructs) and apoptosis inducing agents (Iso, AngII) were used for 24 hours. Cells were fixed in 4% paraformaldehyde, permeabilized in 0.1% Triton X-100 and sodium citrate, and stained using In Situ cell death detection kits, TMR Red (Roche). TUNEL stain assays were interpreted as previously described (Yang e.g., 2006). Nuclei were co-stained with DAPI. Investigators were blinded to the genetic identity and treatment of the mice in all studies.
Cardiomyocytes from mice that express an inhibitory peptide against CaMKII (AC3-I, Zhang e.g., 2005) were treated with 100 nM AngII for 24 hours in parallel with isolated cardiomyocytes from WT and p47^−/− mice. […] Activity assays for caspase-3, a downstream target enzyme in the CaMKII apoptotic signaling pathway in heart, recapitulated the results from the TUNEL assay (FIG. 7A).

## angiotensin II (DRVYIHPF; Angiotensin-2; UniProt P01019 25-32, looked up) [AngII, oxidant stimulating agent in cardiac tissue]
WT cells
  Percent of TUNEL positive nuclei: significant increase
p47−/− or AC3-I cardiomyocytes
  Percent of TUNEL positive nuclei: no significant effect
